Data published in patent US20170095440A1, “METHOD OF TREATING CANINE PANCREATITIS” (CK9, LLC, priority 2014, published 2017).
“And” between values parts separate entries of the source, which are not always exact repeats. Equal entries are not always repeated. “Also recorded” adds a separate entry of the source.

Tests used:
Han Wistar rats [1] = assay: Rising-dose tolerance study, single oral gavage; type: in vivo, rat
Method: The following parameters and end points were evaluated in the rising-dose phase of this study: clinical signs, body weights, body weight changes, food consumption, and gross necropsy findings.
(§1) A total of 18 male and 24 female Han Wistar rats were received from Charles River Laboratories, Raleigh, N.C. The animals were examined and weighed on the day following receipt. The rising-dose phase animals were 8 weeks old and weighed between 176 g and 255 g at initiation of dosing and the multiple-dose phase animals were 8 weeks old and weighed between 172 g and 259 g at initiation of dosing.
For the rising-dose study, the test article was administered to the appropriate animals as a single dose by oral gavage. At least a 3-day observation period was maintained before proceeding to the next dose level/group. The dose volume for each animal was based on the most recent body weight measurement. The doses were given using a syringe with attached gavage cannula. The first day of dosing for each group was designated as Study Day 1.
The animals were removed from the cage and a detailed clinical observation was performed on the day of randomization and Days 1 to 8; 1 to 3 hours postdose on the day of dosing. Each animal was weighed on the day of randomization and Days 1 to 8. Food consumption was quantitatively measured for each animal weekly, starting Day −3, throughout the study.
(§2) Rising-dose study animals were subjected to a complete necropsy examination, which included evaluation of the carcass and musculoskeletal system; all external surfaces and orifices; cranial cavity and external surfaces of the brain; and thoracic, abdominal, and pelvic cavities with their associated organs and tissues. Necropsy examinations were conducted under the supervision of a board-certified veterinary pathologist.

Han Wistar rats [2] = assay: Multiple-dose tolerance study, oral gavage 3 times a day for 7 days; type: in vivo, rat
Method: The following parameters and end points were evaluated in the multiple-dose phase of this study: clinical signs, body weights, body weight changes, food consumption, and gross necropsy findings.
as §1
For the multiple-dose study, the test and control articles were administered to the appropriate animals 3 times a day by oral gavage from Days 1 to 7. The doses were administered 8 hours±30 minutes apart. The dose volume for each animal was based on the most recent body weight measurement. The doses were given using a syringe with attached gavage cannula. The first day of dosing was designated as Study Day 1.
Cage side observations were performed once daily, beginning during Week −1 and throughout the dosing phase. During the dosing period, these observations were performed 1 to 3 hours post the first daily dose.
The animals were removed from the cage and a detailed clinical observation was performed on the day of randomization and Days 1 and 8. Each animal was weighed on the day of randomization (Day −4) and Days 1 to 8. Food consumption was quantitatively measured for each animal weekly, starting Day −4, throughout the dosing phase.
as §2, with “Multiple-dose” for “Rising-dose”
For the multiple-dose study, numerical data collected on scheduled occasions for the listed variables were analyzed as indicated according to sex and occasion. Descriptive statistics number, mean and standard deviation (or % CV or SE when deemed appropriate) were reported whenever possible. Inferential statistics were performed according to the matrix below when possible, but excluded semi-quantitative data, and any group with less than 3 observations.
Levene's test was used to assess the homogeneity of group variances parametric assumption at the 5% significance level. Datasets with at least 3 groups were compared using an overall one-way ANOVA F-test or Kruskal-Wallis test (if parametric assumptions were not met) at the 5% significance level. The above pairwise comparisons were conducted using a two-sided Dunnett's or Dunn's test, respectively, if the overall test was significant. Datasets with 2 groups were compared using a two-sided t-test or Wilcoxon Rank-Sum test, respectively. All significant pairwise comparisons were reported at the 0.1%, 1%, and 5% significance levels.

[3] = test system: dogs with suspected chronic pancreatitis; assay: Serum C-reactive protein before and after treatment, clinical trial; type: in vivo, dog; conditions: 8 mg/kg q 8 hrs, n=17
rat models = conditions: cited from earlier work
plasmin = plasmin (Homo sapiens, UniProt P00747); conditions: cited from earlier work
[4] = 100, 550 or 1300 mg/kg single dose

Sequence of plasmin (P00747 581-810 limits assumed, species assumed): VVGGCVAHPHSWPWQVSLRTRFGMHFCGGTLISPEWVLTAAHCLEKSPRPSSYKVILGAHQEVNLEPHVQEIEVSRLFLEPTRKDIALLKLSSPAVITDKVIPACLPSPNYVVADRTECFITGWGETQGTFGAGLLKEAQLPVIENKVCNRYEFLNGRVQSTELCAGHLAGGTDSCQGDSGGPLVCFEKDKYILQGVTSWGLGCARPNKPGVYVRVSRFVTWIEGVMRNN
Sequence of plasmin (P00747 97-580 partner limits assumed, species assumed): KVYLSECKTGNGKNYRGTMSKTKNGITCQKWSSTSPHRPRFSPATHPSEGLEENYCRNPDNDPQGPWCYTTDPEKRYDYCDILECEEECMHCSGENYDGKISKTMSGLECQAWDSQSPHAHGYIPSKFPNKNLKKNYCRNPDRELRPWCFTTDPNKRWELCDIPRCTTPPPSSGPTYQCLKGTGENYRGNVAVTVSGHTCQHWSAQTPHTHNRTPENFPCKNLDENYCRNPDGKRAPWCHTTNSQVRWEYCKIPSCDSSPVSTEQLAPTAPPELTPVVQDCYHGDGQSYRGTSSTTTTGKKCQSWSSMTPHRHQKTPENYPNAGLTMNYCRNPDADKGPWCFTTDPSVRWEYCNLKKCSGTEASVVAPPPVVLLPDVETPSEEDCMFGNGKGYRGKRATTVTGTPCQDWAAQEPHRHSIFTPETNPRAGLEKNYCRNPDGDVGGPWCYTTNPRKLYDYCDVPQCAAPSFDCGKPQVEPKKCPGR

Structure (SMILES): CN(C)C(=O)COC(=O)Cc1ccc(OC(=O)c2ccc(NC(=N)N)cc2)cc1 [Camostat Mesilate, N,N-dimethylcarbamoylmethyl-4-(4-guanidinobenzoyloxy)phenylacetate methanesulfonate]
- Clinical observation not considered test article related (Han Wistar rats [1]; 550 mg/kg single dose): hair loss was observed in 1 animal
- Necropsy observation not considered test article related (Han Wistar rats [1]; 1300 mg/kg single dose, male): Dark discoloration of the thymus was observed in one 1300 mg/kg male
- Clinical observation not considered a direct test article effect (Han Wistar rats [1]; 1300 mg/kg single dose, possible aspiration during dosing): piloerection and abnormal breathing sounds were observed in 1 animal on Day 2
- Body weight Days 1 to 8 (Han Wistar rats [1]; [4]): All animals gained weight
- Food consumption (Han Wistar rats [1]; [4]): no significant changes in food consumption
- Gross necropsy findings (Han Wistar rats [1]; [4]): no significant gross necropsy findings
- Test article-related clinical observations (Han Wistar rats [1]; [4]): no test article-related clinical observations
- Survival (Han Wistar rats [1]; single oral gavage 100, 550 or 1300 mg/kg, euthanasia Day 8, methanesulfonate): All animals survived to scheduled euthanasia; also recorded: No animals died
- Clinical observations (Han Wistar rats [2]; 1300 mg/kg/day, Day 8, methanesulfonate): Most of the 1300 mg/kg/day animals were noted to be thin and 3/3 males and 2/3 females were noted to be thin
- Necropsy observation not considered test article related (Han Wistar rats [2]; 1300 mg/kg/day, male): small seminal vesicle was noted in one 1300 mg/kg/day male
- Overall conclusion of multiple dosing (Han Wistar rats [2]; 3 times per day for 7 days): body weight loss and decreased food consumption
- Gross necropsy findings (Han Wistar rats [2]; 100, 550, 1300 mg/kg/day): no toxicologically meaningful gross necropsy findings
- Survival (Han Wistar rats [2]; 100, 550, 1300 mg/kg/day, 3 times a day, 7 days, euthanasia Day 8, methanesulfonate): All animals survived to scheduled euthanasia; also recorded: No animals died
- Mean body weights compared to controls (Han Wistar rats [2]; 100 or 550 mg/kg/day): no statistically significant or toxicologically meaningful differences
- Clinical observations (Han Wistar rats [2]; 100 or 550 mg/kg/day, 7 days): no clinical observations noted
- Mean body weight, deviation from controls (Han Wistar rats [2]; 100 or 550 mg/kg/day, Day 8): ≤ 4.4%
- Mean food consumption, statistical comparison with controls (Han Wistar rats [2]; Days 1 to 7, all dose groups): no statistically significant differences
- Mean body weight lower than controls (Han Wistar rats [2]; females, Day 8, 1300 mg/kg/day, statistically decreased Days 5 to 8): 19%
- Body weight change Days 1 to 8 (Han Wistar rats [2]; females, 1300 mg/kg/day): −13%
- Mean body weight lower than controls (Han Wistar rats [2]; males, Day 8, 1300 mg/kg/day, statistically decreased Days 4 to 8): 25%
- Body weight change Days 1 to 8 (Han Wistar rats [2]; males, 1300 mg/kg/day): −15%
- High-dose level chosen from the tolerance study (Han Wistar rats [2]; rats, oral, 3 times per day): 1300 mg/kg/day
- Change in serum C-reactive protein, pre- vs post-treatment ([3]; methanesulfonate): no significant difference; also recorded: did not change significantly
- Serum C-reactive protein concentration post-treatment (median) ([3]; pre-treatment median 0.1, post range 0.1-6.8, p=0.25): 0.1 mg/L
- Fibrosis associated with chronic pancreatitis (rat models): suppress fibrosis
- Microscopic signs of inflammation (rat models): markedly decrease microscopic signs of inflammation
- Pro-inflammatory cytokine production (rat models): suppress pro-inflammatory cytokine production
- Anti-plasmin activity (plasmin): anti-plasmin activity
